In publication PMC8952208, “Synthesis, Antiplasmodial, and Antileukemia Activity of Dihydroartemisinin–HDAC Inhibitor Hybrids as Multitarget Drugs” (Pharmaceuticals, 2022):

Tests used:
Healthy Fibroblast 1 = assay: Cytotoxicity against healthy fibroblast 1; format: cell-based; details: Homo sapiens, healthy individually-derived fibroblasts
Protocol: (§1) Healthy individually-derived fibroblasts were cultured in DMEM supplemented with 10% FCS. Regular cell line authentication was performed short tandem repeat (STR) analysis (DNA fingerprinting), followed by comparison with the original DSMZ cell line database.
(§2) Cell viability assay was performed with leukemic cell lines after 72 h incubation with the respective inhibitors using ATP-based CellTiter-Glo luminescent assay (Promega, Madison, WI, USA).

HL60 cells = assay: CellTiter-Glo cell viability assay, HL60; format: cell-based, human; details: for IC50: Homo sapiens, HL-60, AML, 72 h, CellTiter-Glo, n = 3; for Selectivity index range healthy fibroblasts vs HL60: SI = (healthy fibroblast IC50)/(leukemia cell line IC50), range over two fibroblasts
Protocol: as §1, §2

NALM6 cells = assay: CellTiter-Glo cell viability assay, NALM6; format: cell-based, human; details: for IC50: Homo sapiens, NALM-6, B-ALL, 72 h, CellTiter-Glo, n = 3; for Selectivity index range healthy fibroblasts vs NALM6: SI = (healthy fibroblast IC50)/(leukemia cell line IC50), range over two fibroblasts
Protocol: as §1, §2

P. falciparum 3D7 = assay: microbe, parasite or virus in culture; format: cell-based; details: Plasmodium falciparum, 3D7, 72 h; asexual blood stages, three days incubation; n ≥ 2 in duplicate, mean ± SD; read-out: Pf3D7 IC50
Protocol: (§3) [38, 39] […] After three days of incubation at 37 °C, 5% CO2 and 5% O2 plates were frozen until analyzed by HRP2-ELISA. All compounds were evaluated in duplicate in at least two independent experiments. The IC50 was determined by nonlinear regression analysis of log concentration-response curves using the drc-package v3.0.1 [40] of R v4.0.5..

P. falciparum Dd2 = assay: microbe, parasite or virus in culture; format: cell-based; details: Plasmodium falciparum, DD2, 72 h, read-out: PfDd2 IC50
Protocol: as §3

K562 cells = assay: Annexin V-PI staining; format: cell-based, human; details: 48 h, 0.4 µM or 0.8 µM
Protocol: To evaluate the induction of apoptosis upon respective inhibitor treatment, K562 cells were incubated (48 h) with inhibitors (0.4 µM or 0.8 µM) or with vehicle control (DMSO). The induction of apoptosis/necrosis was analyzed by measuring hypodiploid DNA content, mitochondrial potential, and exposure of phosphatidylserine after annexin/propidium iodide (PI) staining kit (BD, Franklin lakes, NJ, USA) using FACS.

human HDAC6 (hHDAC6) = molecular target: T1, human HDAC6 (hHDAC6) (Homo sapiens, UniProt Q9UBN7); assay: In vitro human HDAC6 assay (ZMAL substrate); format: biochemical; details: for SI 1/6: Selectivity Index = (hHDAC1 IC50)/(hHDAC6 IC50)
T1 construct: purchased BPS Bioscience Inc. 50006
T1 sequence (Q9UBN7 1-1215): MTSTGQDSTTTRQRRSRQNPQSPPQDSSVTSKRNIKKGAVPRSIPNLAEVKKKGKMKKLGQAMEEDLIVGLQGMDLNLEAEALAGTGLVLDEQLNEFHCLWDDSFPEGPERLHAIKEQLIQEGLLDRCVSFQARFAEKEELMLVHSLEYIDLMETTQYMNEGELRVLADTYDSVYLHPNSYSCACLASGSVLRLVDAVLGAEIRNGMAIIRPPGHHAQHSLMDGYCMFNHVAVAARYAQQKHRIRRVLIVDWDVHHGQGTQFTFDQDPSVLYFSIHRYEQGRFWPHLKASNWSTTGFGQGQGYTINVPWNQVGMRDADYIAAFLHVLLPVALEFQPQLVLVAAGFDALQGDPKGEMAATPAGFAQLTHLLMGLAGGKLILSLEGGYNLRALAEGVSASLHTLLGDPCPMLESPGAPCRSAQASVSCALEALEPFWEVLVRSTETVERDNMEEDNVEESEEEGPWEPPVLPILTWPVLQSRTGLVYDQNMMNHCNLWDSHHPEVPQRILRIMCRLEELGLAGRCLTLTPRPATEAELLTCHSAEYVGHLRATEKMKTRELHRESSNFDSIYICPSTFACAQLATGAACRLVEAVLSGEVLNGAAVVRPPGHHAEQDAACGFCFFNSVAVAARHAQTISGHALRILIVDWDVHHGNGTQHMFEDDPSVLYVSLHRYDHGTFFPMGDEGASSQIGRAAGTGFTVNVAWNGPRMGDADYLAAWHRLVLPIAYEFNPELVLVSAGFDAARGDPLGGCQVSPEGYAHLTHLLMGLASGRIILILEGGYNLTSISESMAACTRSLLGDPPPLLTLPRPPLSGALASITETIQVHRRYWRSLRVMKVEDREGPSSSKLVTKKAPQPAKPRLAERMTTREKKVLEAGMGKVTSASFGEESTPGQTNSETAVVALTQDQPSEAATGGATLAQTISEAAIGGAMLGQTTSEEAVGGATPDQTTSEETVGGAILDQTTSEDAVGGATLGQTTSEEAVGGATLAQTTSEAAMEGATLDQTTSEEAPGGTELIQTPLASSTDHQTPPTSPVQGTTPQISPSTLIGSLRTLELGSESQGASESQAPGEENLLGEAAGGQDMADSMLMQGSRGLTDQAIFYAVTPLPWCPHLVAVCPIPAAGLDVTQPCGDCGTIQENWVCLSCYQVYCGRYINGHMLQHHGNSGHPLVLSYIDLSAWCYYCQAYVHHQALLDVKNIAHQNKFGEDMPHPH
Protocol: OptiPlate-96 black microplates (Perkin Elmer Inc., Waltham, MA, USA) were used with an assay volume of 50 µL. […] After an incubation time of 90 min, 50 µL of 0.4 mg/mL trypsin in trypsin buffer (50 mM Tris-HCl, pH 8.0, and 100 mM NaCl) was added, followed by further incubation at 37 °C for 30 min.

A2780 cells = assay: MTT cell viability assay; format: cell-based; details: Homo sapiens, 72 h, n ≥ 3 in triplicate, mean ± SD
Protocol: Reagents were obtained from PAN Biotech, Aidenbach Germany. The cell line was cultured at 37 °C under humidified air with 5% CO2 to a confluence of 80–90% before being used for further assays.
Intrinsic cytotoxicity of test compounds was determined by an MTT assay as previously described. A2780 cells were seeded in 96-well plates (Starlab GmbH, Hamburg, Germany) at a density of 20,000 cells/well and allowed to attach for 12 h. Cells were then treated with increasing concentrations of the test compounds. After 72 h, MTT (3-(4,5-dimethylthiazol-2-yl)-2,5-diphenyltetrazolium bromide) (BioChemica, Applichem GmbH, Darmstadt, Germany) solution (5 mg/mL in phosphate-buffered saline) was added to determine cell survival. The formazan dye was dissolved in DMSO (Sigma-Aldrich, Darmstadt, Germany) after 1 h. Absorbance was measured at 570 nm and 690 nm in a Multiskan microplate photometer (Thermo Fisher Scientific, Waltham, MA, USA). Concentration-response curves were generated using the four-parameter logistic equation (GraphPad Prism 9.0, San Diego, USA), and mean IC50 values were calculated in triplicates based on at least three different experiments.

HPBALL cells = assay: CellTiter-Glo cell viability assay, HPBALL; format: cell-based, human; details: for IC50: Homo sapiens, HPBALL, T-ALL, 72 h, CellTiter-Glo, n = 3; for Selectivity index range healthy fibroblasts vs HPB ALL: SI = (healthy fibroblast IC50)/(leukemia cell line IC50), range over two fibroblasts
Protocol: as §1, §2

SMILES | IC50 (Healthy Fibroblast 1) | IC50 (HL60 cells) | Selectivity index range healthy fibroblasts vs HL60 (HL60 cells) | IC50 (NALM6 cells) | Selectivity index range healthy fibroblasts vs NALM6 (NALM6 cells) | IC50 (P. falciparum 3D7) | IC50 (P. falciparum Dd2) | necrosis induction (annexin V/PI) (K562 cells) | IC50 (human HDAC6 (hHDAC6)) | SI 1/6 (human HDAC6 (hHDAC6)) | IC50 (A2780 cells) | IC50 (HPBALL cells) | Selectivity index range healthy fibroblasts vs HPB ALL (HPBALL cells) | apoptosis induction (annexin V/PI) (K562 cells)
C[C@H]1[C@@H](SCc2ccc(C(=O)NO)cc2)O[C@@H]2O[C@@]3(C)CC[C@H]4[C@H](C)CC[C@@H]1[C@@]24OO3 [(α)-7c, N-Hydroxy-4-((((3R,5aS,6R,8aS,9R,10R,12S,12aR)-3,6,9-trimethyldecahydro-12H-3,12-epoxy[1,2]dioxepino[4,3-i]isochromen-10-yl)thio)methyl)benzamide] | 12690 ± 120 nM | 1020 ± 270 nM | 7-12 | 280 ± 50 nM | 27-45 | 3.3 ± 1.4 nM | 3.4 ± 0.12 nM | induced significant necrosis | 36 ± 8 nM | 56 | 1100 ± 250 nM | 6720 ± 440 nM | 1.1-1.9 | 
C[C@H]1[C@H](SCc2ccc(C(=O)NO)cc2)O[C@@H]2O[C@@]3(C)CC[C@H]4[C@H](C)CC[C@@H]1[C@@]24OO3 [(β)-7c, N-Hydroxy-4-((((3R,5aS,6R,8aS,9R,10S,12S,12aR)-3,6,9-trimethyldecahydro-12H-3,12-epoxy[1,2]dioxepino[4,3-i]isochromen-10-yl)thio)methyl)benzamide] | 14700 ± 3420 nM | 2340 ± 460 nM | 6-8 | 250 ± 10 nM | 59-71 | 3.6 ± 1.1 nM | 3.2 ± 0.02 nM |  | 41 ± 9 nM | 68 | 880 ± 130 nM | 12300 ± 570 nM | 1.2-1.4 | significantly induced apoptosis as compared to DHA
C[C@@H]1CC[C@H]2[C@@H](C)C(OCc3ccc(/C=C/C(=O)NO)cc3)O[C@@H]3O[C@@]4(C)CC[C@@H]1[C@]32OO4 (stereo partly drawn) [Compound 7a, (E)-N-Hydroxy-3-(4-((((3R,5aS,6R,8aS,9R,12R,12aR)-3,6,9-trimethyldecahydro-12H-3,12-epoxy[1,2]dioxepino[4,3-i]isochromen-10-yl)oxy)methyl)phenyl)acrylamide] | 13100 ± 100 nM | 1330 ± 140 nM | 5-10 | 150 ± 10 nM | 42-87 | 2.6 ± 1.4 nM | 1.7 ± 0.92 nM |  | 187 ± 4 nM | 3 | 1950 ± 520 nM | 1360 ± 30 nM | 5-10 | significantly induced apoptosis as compared to DHA
C[C@H]1[C@@H](O)O[C@@H]2O[C@@]3(C)CC[C@H]4[C@H](C)CC[C@@H]1[C@@]24OO3 [DHA, dihydroartemisinin] | > 25000 nM | 3570 ± 1040 nM |  | 2500 ± 160 nM |  | 3 ± 2.7 nM | 1.8 ± 0.02 nM |  | > 10000 nM |  | 970 ± 70 nM | 9930 ± 1510 nM |  | 
